Laboratory results: patent publication US4994376A, “Detection of bacteroides gingivalis” (priority 1987, dated 1991)
Read-outs that look alike come from different tables or passages of the source. Peptide text beside a SMILES is read from it. * marks the point of attachment. βNA = c1ccc2cc(N*)ccc2c1

Legend:
Format in all cases: biochemical
[1] = tested on: B. melaninogenicus; experiment: Aminopeptidase activity on β-naphthylamide substrates; conditions: strain ATCC 25845; β-naphthylamine liberated after 60 minutes, 37° C.
Method in brief: (§1)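 N-CBz-glycyl-glycyl-L-arginine-β-naphthylamide was hydrolysed for 1 hour at 37 °C, then coupled with Fast Garnet GBC (0.5 mg/ml) in 1M acetic acid buffer, pH 4.2, containing 10% Tween 20. After 15 minutes at room temperature, absorbance was read at 525 nm against a no-enzyme blank; activity is given as nmol β-naphthylamine released per 60 min.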

[2] = tested on: B. intermedius; experiment: as above; conditions: strain ATCC 25611; β-naphthylamine liberated after 60 minutes, 37° C.
Method in brief: as §1

[3] = tested on: B. denticola; experiment: as above; conditions: strain ATCC 33185; β-naphthylamine liberated after 60 minutes, 37° C.
Method in brief: as §1

[4] = tested on: C. sputigena; experiment: as above; conditions: strain ATCC 33123; β-naphthylamine liberated after 60 minutes, 37° C.
Method in brief: as §1

[5] = tested on: B. corporis; experiment: as above; conditions: strain ATCC 33547; β-naphthylamine liberated after 60 minutes, 37° C.
Method in brief: as §1

[6] = tested on: Capnocytophaga gingivalis; conditions: strain ATCC 33624; β-naphthylamine liberated after 60 minutes, 37° C.
Method in brief: as §1

[7] = tested on: C. ochracea; conditions: strain ATCC 27872; β-naphthylamine liberated after 60 minutes, 37° C.
Method in brief: as §1

[8] = tested on: B. loescheii; conditions: β-naphthylamine liberated after 60 minutes, 37° C.
Method in brief: as §1

[9] = tested on: B. asaccharolyticus; conditions: β-naphthylamine liberated after 60 minutes, 37° C.
Method in brief: as §1

[10] = tested on: Bacteroides gingivalis; conditions: β-naphthylamine liberated after 60 minutes, 37° C.
Method in brief: as §1

[11] = tested on: Capnocytophaga sp.; conditions: strain JD3-5; β-naphthylamine liberated after 60 minutes, 37° C.
Method in brief: as §1

[12] = tested on: B. levii; conditions: β-naphthylamine liberated after 60 minutes, 37° C.
Method in brief: as §1

[13] = tested on: B. mel. ss. intermedius; conditions: β-naphthylamine liberated after 60 minutes, 37° C.
Method in brief: as §1

[14] = tested on: A. equuli; experiment: Aminopeptidase activity on β-naphthylamide substrates; conditions: strain ATCC 19392; β-naphthylamine liberated after 60 minutes, 37° C.
Method in brief: (§2)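 Readout: absorbance at 525 nm (or visual match to standard solutions) after diazo coupling with Fast Garnet GBC. Substrate N-CBz-glycyl-glycyl-L-arginine-β-naphthylamide, 1 h, 37° C. Values = nmol β-naphthylamine released per 60 min; no-enzyme mixture as control.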

[15] = tested on: F. periodonticum; experiment: as above; conditions: strain EK1-15; β-naphthylamine liberated after 60 minutes, 37° C.
Method in brief: as §2

[16] = tested on: Lactobacillus casei; experiment: as above; conditions: β-naphthylamine liberated after 60 minutes, 37° C.
Method in brief: as §2

[17] = tested on: S. salivarius; experiment: as above; conditions: β-naphthylamine liberated after 60 minutes, 37° C.
Method in brief: as §2

[18] = tested on: Haemophilus aphrophilus; experiment: as above; conditions: β-naphthylamine liberated after 60 minutes, 37° C.
Method in brief: as §2

[19] = tested on: L. fermentum; experiment: as above; conditions: strain ATCC 11581; β-naphthylamine liberated after 60 minutes, 37° C.
Method in brief: as §2

[20] = tested on: A. suis; experiment: as above; conditions: strain ATCC 15557; β-naphthylamine liberated after 60 minutes, 37° C.
Method in brief: as §2

[21] = tested on: "Anaerobic vibrio"; conditions: strain SN2T2; β-naphthylamine liberated after 60 minutes, 37° C.
Method in brief: as §2

[22] = tested on: S. mutans; conditions: strain ATCC 25175; β-naphthylamine liberated after 60 minutes, 37° C.
Method in brief: as §2

[23] = tested on: A. viscosus; conditions: β-naphthylamine liberated after 60 minutes, 37° C.
Method in brief: as §2

[24] = tested on: Streptococcus mitis; conditions: β-naphthylamine liberated after 60 minutes, 37° C.
Method in brief: as §2

[25] = tested on: Fusobacterium nucleatum; conditions: β-naphthylamine liberated after 60 minutes, 37° C.
Method in brief: as §2

[26] = tested on: Actinobacillus actinomycetemcomitans; conditions: β-naphthylamine liberated after 60 minutes, 37° C.
Method in brief: as §2

[27] = tested on: Veillonella sp.; conditions: strain SE1M2; β-naphthylamine liberated after 60 minutes, 37° C.
Method in brief: as §2

[28] = tested on: S. sanguis; conditions: β-naphthylamine liberated after 60 minutes, 37° C.
Method in brief: as §2

Measured: Aminopeptidase activity

CC(C)C[C@H](N)C(=O)NCC(=O)O [Leu-Gly, Leucyl-glycine] (H-Leu-Gly-OH)
1 nmol: [16]; strain ATCC 11582
58 nmol: [8]; strain VPI4196
25 nmol: [9]; strain ATCC 18569
0 nmol: [9]; strain NY446 | [11] | [14] | [15] | [16]; strain ATCC 7469 | [17]; strain ATCC 9759 | [17]; strain ATCC 25975 | [18]; strain ATCC 13252 | [18]; strain ATCC 19415 | [18]; strain NCTC 5908 | [20] | [21] | [22] | [23]; strain ATCC 19246 | [23]; strain T14V | [24]; strain ATCC 9815 | [24]; strain ATCC 15909 | [24]; strain ATCC 15912 | [25]; strain ATCC 25586 | [25]; strain D31A-24 | [26]; strain 75 | [26]; strain ATCC 29523 | [26]; strain NCTC 9709 | [26]; strain Y4 | [27] | [28]; strain ATCC 10556 | [28]; strain ATCC 10557
42 nmol: [3]
76 nmol: [10]; strain 381
37 nmol: [9]; strain ATCC 25260
53 nmol: [1]
47 nmol: [10]; strain 11-1-2 | [12]; strain 18-1-5
9 nmol: [7] | [13]; strain ATCC 25261
8 nmol: [6]
48 nmol: [10]; strain ATCC 33277
51 nmol: [9]; strain ATCC 27067 | [12]; strain 18-1-8
124 nmol: [24]; strain ATCC 15911
49 nmol: [9]; strain 536B
16 nmol: [10]; strain 1021
10 nmol: [2]
20 nmol: [4] | [8]; strain ATCC 15930
67 nmol: [5]
2 nmol: [13]; strain ATCC 33563 | [16]; strain ATCC 11578 | [19] | [25]; strain 2 | [26]; strain 67
6 nmol: [10]; strain 9-14K-1 | [10]; strain FAYE 19m-1
11 nmol: [13]; strain NCTC 9336

CC(C)C[C@H](NC(=O)[C@@H]1CCCN1C(=O)CN)C(=O)Nc1ccc2ccccc2c1 [Gly-Pro-Leu] (H-Gly-Pro-Leu-βNA)
58 nmol: [6]
3 nmol: [9]; strain 536B | [9]; strain ATCC 25260
7 nmol: [24]; strain ATCC 15909
1 nmol: [3] | [8]; strain ATCC 15930 | [8]; strain VPI4196 | [12]; strain 18-1-5 | [13]; strain ATCC 25261 | [13]; strain NCTC 9336 | [15] | [26]; strain 67 | [26]; strain 75
6 nmol: [28]; strain ATCC 10557
27 nmol: [24]; strain ATCC 9815
0 nmol: [2] | [9]; strain ATCC 18569 | [9]; strain NY446 | [10]; strain 9-14K-1 | [10]; strain 381 | [10]; strain 1021 | [10]; strain ATCC 33277 | [10]; strain FAYE 19m-1 | [11] | [12]; strain 18-1-8 | [14] | [16]; strain ATCC 7469 | [16]; strain ATCC 11578 | [16]; strain ATCC 11582 | [17]; strain ATCC 25975 | [18]; strain ATCC 13252 | [18]; strain ATCC 19415 | [18]; strain NCTC 5908 | [19] | [20] | [21] | [22] | [23]; strain ATCC 19246 | [25]; strain 2 | [26]; strain ATCC 29523 | [26]; strain NCTC 9709 | [26]; strain Y4 | [27]
2 nmol: [1] | [5] | [10]; strain 11-1-2 | [13]; strain ATCC 33563 | [17]; strain ATCC 9759 | [23]; strain T14V | [25]; strain ATCC 25586 | [25]; strain D31A-24
41 nmol: [7]
11 nmol: [24]; strain ATCC 15912 | [28]; strain ATCC 10556
28 nmol: [4]
4 nmol: [9]; strain ATCC 27067
